The text below walks through data of patent publication US6919365B2, “Imidazolidinedione derivatives and use thereof as drugs” (Senju Pharmaceutical Co., Ltd., priority 2001, dated 2005).

Experiment [1] has as its target human lung tryptase. The experiment can be described thus: Tryptase inhibition activity (fluorogenic substrate Boc-Val-Pro-Arg-MCA). Format: biochemical. The conditions noted are these: pH7.1, 30° C., 30 minutes. As for the experimental part: Then, the tryptase inhibition activity was measured according to the method of Muramatsu et al. (Biol. Chem. Hoppe-Seyler, vol.369, pp617(1988)). That is, 62.5 μL of a solution adjusted so that the enzyme activity of human lung tryptase (manufactured by Sigma) became 7.9 μUnit with 0.1M phosphate buffer-1.5M NaCl (pH7.1), was added to 2.5 μL of a test substance dissolved in DMSO, a temperature was retained at 30° C. for 5 minutes, and 125 μL of 0.6mM Boc-Val-Pro-Arg-MCA. HCl (manufactured by BACHEM)/0.1M phosphate buffer (pH7.1) as a substrate was added to obtain a reaction solution. The reaction solution was set at a multi-well plate reader CYTOFLUOR Series 4000 (manufactured by Perceptive Biosystems), and a change in the fluorescent intensity was measured at 30° C. for 30 minutes with time (excitation wavelength 360 nm, detection wavelength 450 nm). As a control, 2.5 μL of DMSO containing no test substance was used, and treated and measured similarly. As a blank, 0.1M phosphate buffer-1.5M NaCl (pH7.1) was added in place of a tryptase solution, and treated and measured similarly.
A tryptase inhibition rate (%) was obtained by calculating a slope (S) of an approximation straight line for each test material, a slope (C) of an approximation straight line for a control, a slope (Bs) of an approximation straight line for a blank of each test substance, and a slope (Bc) of an approximation straight line for a blank of a control from a change in the fluorescent intensity, and calculating from the following equation. Inhibition rate (%)=[1−(S−Bs)/(C−Bc)]×100 Experimental Results
(§1) Regarding the compounds of the present invention, each 50% inhibition concentration (IC50) was calculated from the chymase and tryptase inhibition activity obtained by the aforementioned method.

Experiment [2] has as its target T1, recombinant human chymase (Homo sapiens, UniProt P23946).
T1 sequence (P23946 22-247): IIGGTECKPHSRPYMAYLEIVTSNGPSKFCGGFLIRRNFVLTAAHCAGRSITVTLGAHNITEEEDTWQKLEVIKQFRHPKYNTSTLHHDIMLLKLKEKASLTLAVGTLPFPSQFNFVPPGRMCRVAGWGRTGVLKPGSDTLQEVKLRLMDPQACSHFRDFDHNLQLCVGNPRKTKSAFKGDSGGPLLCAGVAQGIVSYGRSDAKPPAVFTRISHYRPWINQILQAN
As to the kind of experiment: Chymase inhibition activity (fluorogenic substrate Suc-Ala-Ala-Pro-Phe-MCA). Format: biochemical. The conditions noted are these: 30° C., 30 minutes. As for the experimental part: The chymase inhibition activity was measured according to the method of Kato et al. (J. Biochem., Vol.103, pp820(1988)). That is, 72.5 μL of a solution adjusted so that the enzyme activity of recombinant human chymase (JP-A No.10-87567) became 2.3 μUnit with HEPES buffer, was added to 2.5 μL of a test substance dissolved in dimethyl sulfoxide (DMSO), a temperature was retained at 30° C. for 5 minutes, and 125 μL of 0.6 mM Suc-Ala-Ala-Pro-Phe-MCA (manufactured by Peptide Institute Inc.)/Tris buffer as a substrate was added to obtain a reaction solution. The reaction solution was set at a multi-well plate reader CYTOFLUOR Series 4000 (manufactured by Perceptive Biosystems), and a change in the fluorescent intensity was measured at 30° C. for 30 minutes with time (excitation wavelength 360 nm, detection wavelength 450 nm).
As a control, 2.5 μL of DMSO containing no test substance was used, and this was treated and measured similarly. As a blank, a Tris hydrochloric acid buffer was added instead of a chymase solution, and treated and measured similarly.
The chymase inhibition rate (%) was obtained by calculating a slope (S) of an approximation straight line for each test substance, a slope (C) of an approximation straight line for a control, a slope (Bs) of an approximation straight line for a blank of each test substance, and a slope (Bc) of approximation straight line for a blank of a control from a change in the fluorescent intensity, and calculating from the following equation. Inhibition rate (%)=[1−(S−Bs)/(C−Bc)]×100
as §1

The test system of experiment [3] is rat mast cells (intraperitoneal cell suspension, PEC). The experiment can be described thus: Rat mast cell histamine release inhibition test. Format: cell-based. The conditions noted are these: for Inhibition rate (%) of release of histamine from mast cells: phosphatidylserine and concanavalin A stimulated. On the procedure: A rat was killed by exsanguinations under ether anesthesia, and 30 mL of a buffer for mast cells (150 mM NaCl, 3.7 mM KCl, 3.0 mM Na2HPO4, 1 mM CaCl2, 5.6 mM glucose) was injected intraperitoneally. An abdominal part was massaged for 90 seconds, and a suspension of intraperitoneal cell was taken. A suspension of an intraperitoneal cell collected from 5 animals was centrifuged at 100 G at 4° C. for 5 minutes, a buffer for mast cells was added, washed three times and, finally, adjusted so that the number of mast cells became 3 to 5×10^5 cells/mL (hereinafter, this solution is abbreviated as PEC).
Compound 5 was dissolved in DMSO to prepare a test drug solution at each concentration (final DMSO concentration 0.8%). 100 μL of the test drug solution was added to 400 μL of the prepared PEC, and pre-incubated at 37° C. for 15 minutes. After pre-incubation, each 50 μL of a solution of phosphatidylserine (10 μg/ml) and concanavalin A(15 μg/ml) which is a histamine-releasing substance was added, and further incubated for 20 minutes. 1.4 mL of an ice-cooled buffer for mast cells was added to stop the reaction, and centrifuged at 250 G at 4° C. for 10 minutes. An amount of the histamine supernatant was quantitated using a fluorescent method. That is, 20 μL of 1N NaOH was added to 40 μL of the supernatant, 20 μL of a 1% o-phthalaldehyde solution in methanol was further added, and allowed to stand at room temperature for 5 minutes. Thereafter, 20 μL of 3N hydrochloric acid was added, and the fluorescent intensity was measured at an excitation wavelength of 350 nm and a fluorescent wavelength of 450 nm to obtain an amount of histamine.
A histamine release inhibition rate (%) was calculated from the following equation: Inhibition rate (%)=[1−(S−B)/(C−B)]×100 • S: amount of histamine in the supernatant, C: amount of histamine in control, B: amount of histamine in blank Test Results

One may read the IC50 as the concentration needed to halve the response being measured. Consider “1-(3-Chlorobenzyl)-5,5-dimethyl-3-naphthylcarbonylimidazolidine-2,4-dione [Compound 28]”, for which the IC50 in experiment [1] and in experiment [2] was 2200 nM each time.
On to “1-Isobutyl-3-naphthylcarbonyl-5,5-diphenylimidazolidine -2,4-dione [Compound 23]”, for which the half-inhibitory concentration (IC50) in experiment [1] came out at 4400 nM; in experiment [2], 280 nM.
The corresponding values for “1-Methyl-3-naphthylcarbonyl-5,5-diphenylimidazolidine-2,4-dione [Compound 22]” are 89 nM and 3500 nM.
For “3-Naphthylcarbonyl-1,3-diazaspiro[4.5]decane-2,4-dione [Compound 34]”, in that order: 280 nM and 32000 nM.
Take “3-Naphthylcarbonyl-2,4-dioxo-5,5-diphenylimidazolidinylacetic acid [Compound 5]”: the IC50 was found to be 970 nM in experiment [1] and 1200 nM in experiment [2]. For the same molecule, the “Inhibition of release of histamine (in words)” value in experiment [3] (8 to 100 μM) is given as “inhibited release of histamine concentration-dependently”. The “Inhibition rate (%) of release of histamine from mast cells” value in experiment [3] (test drug concentration 8 μM) is 28%; in experiment [3] (test drug concentration 40 μM), 59%; in experiment [3] (test drug concentration 80 μM), 78%; in experiment [3] (test drug concentration 100 μM), 83%.
For “3-Naphthylcarbonyl-5,5-diphenylimidazolidine-2,4-dione [Compound 2]”, the figures for the half-maximal inhibitory concentration (IC50) in experiment [1] and in experiment [2] were 46 nM and 340 nM, respectively.
For “4-(5,5-Dimethyl-3-naphthylcarbonyl-2,4-dioxoimidazolidinylmethyl)benzonitrile [Compound 27]”, in that order: 7100 nM and 540 nM.
For “5,5- Dimethyl-3-naphthylcarbonylimidazolidine-2,4-dione [Compound 8]”, in that order: 3200 nM and 30000 nM.
The corresponding values for “5,5-Dimethyl-1,3-bisnaphthylcarbonyl imidazolidine-2,4-dione [Compound 33]” are 1500 nM and 1800 nM.
Regarding “5,5-Dimethyl-3-naphthylcarbonyl-1,3-oxazolidine-2,4-dione [Compound 9]”, the figures for the IC50 in experiment [1] and in experiment [2] were 1000 nM and 730 nM, respectively.
The corresponding values for “5,5-Dimethyl-3-naphthylcarbonyl-1-(2-oxo-2-phenylethyl)imidazolidine-2,4-dione [Compound 30]” are 7200 nM and 3300 nM.
The corresponding values for “5-Methyl-3-naphthylcarbonyl-2,4-dioxo-5-phenylimidazolidinylacetic acid [Compound 16]” are 1800 nM and 910 nM.
On to `O=C1NC(c2ccccc2)(c2ccccc2)C(=O)N1C(=O)c1ccc2ccccc2c1` [Compound 1, 3-(2-Naphthylcarbonyl)-5,5-diphenylimidazolidine-2,4-dione], for which the IC50 in experiment [1] turned out to be 390 nM; in experiment [2] it was 66 nM.
For `CC1(c2ccccc2)NC(=O)N(C(=O)c2cccc3ccccc23)C1=O` (centres unmarked) [Compound 7], in that order: 370 nM and 6500 nM.
Consider `CC1(c2ccccc2)C(=O)N(C(=O)c2cccc3ccccc23)C(=O)N1Cc1cccc(Cl)c1` (centres unmarked) [Compound 25, 1-(3-Chlorobenzyl)-5-methyl-3-naphthylcarbonyl-5-phenylimidazolidine-2,4-dione], for which the IC50 is 86000 nM in experiment [1] and 580 nM in experiment [2].
For “Ethyl 2-(3-naphthylcarbonyl-2,4-dioxo-5,5-diphenylimidazolidinyl)acetate [Compound 3]”, in that order: 930 nM and 1000 nM.
The corresponding values for “Tert-butyl (5,5-dimethyl-3-naphthylcarbonyl-2,4-dioxoimidazolidinyl)acetate [Compound 13]” are 1600 nM and 2700 nM.
For “tert-Butyl (5-methyl-3-naphthylcarbonyl-2,4-dioxo-5-phenylimidazolidinyl)acetate [Compound 14]”, in that order: 1600 nM and 260 nM.
